Entries after “also recorded” stand apart in the source; their conditions may differ.
Assays:
[1] = tested on: human embryonic stem cells; assay: Cytotoxicity in differentiation culture; type: cell-based; conditions: for cytotoxicity: 10 μM of LY29400, 1 μM of an AKT inhibitor, or 220 nM of rapamycin
[2] = tested on: human embryonic stem cell-derived embryoid bodies; assay: RT-PCR of osteoblast-specific genes, embryoid body formation method (FIG. 6); type: cell-based; conditions: for expression level of osteoblastic markers / expression level of osteoblast-specific genes compared to untreated control: embryoid bodies; for expression level of osteoblastic markers: 20 nM rapamycin for three weeks; for expression level of osteoblast-specific genes compared to untreated control: LY294002 (0-50 μM), AKT inhibitor (0-20 μM), or rapamycin (0-200 nM) for 1~3 weeks; for expression levels of osteoblast-specific genes: embryoid body formation method
Protocol: After being collected as a suspension, the cell clumps were transferred into bacterial cell culture dishes and incubated for 5 days in a suspension culture manner. Afterwards, the embryoid bodies thus obtained were transferred to Matrigel (BD biosciences, USA)-coated culture dishes, free of human recombinant FGF basic, containing 0.1˜200 nM rapamycin, […], or osteogenic supplements (10 mM β-glycerophosphate, 0.1 mM Dexamethasone, and 0.1 mM L-ascorbic acid) for three weeks in an adhesion culture manner to achieve osteogenic differentiation (FIG. 3A).
(§1) The differentiation of human embryonic stem cells into osteoblasts in Example 3 was examined by detecting the expression of osteoblast-specific genes through RT-PCR and quantitative real-time PCR. For this, after treatment or non-treatment with rapamycin, LY294002, an AKT inhibitor or osteogenic supplements (10 mM β-glycerophosphate, 0.1 mM Dexamethasone, and 0.1 mM L-ascorbic acid), cells were collected according to differentiation stages and subjected to total RNA isolation using a TRIzol reagent (Invitrogen, USA). The RNA was used as a template to synthesize cDNA with a oligo(dT) primer in the presence of a Superscript II reverse transcriptase, followed by PCR with various primers listed in Table 1, below.
(§2) Osteogenic differentiation using the embryoid body formation method is schematically illustrated in FIG. 3A. Initially, human embryonic stem cells are cultured for one day in the same manner as in the adhesion culture method, after which the colonies thus grown are sliced into cell clumps using a tool made from a glass pipette.

[3] = tested on: human embryonic stem cells; assay: RT-PCR of osteoblast-specific genes, adhesion culture (FIG. 5); type: cell-based; conditions: for expression of osteoblast-specific genes: 10 μM of LY29400, 1 μM of an AKT inhibitor, or rapamycin; for expression level of osteoblastic markers: human embryonic stem cells, LY294002, AKT inhibitor, or 20 nM rapamycin for 5 days
Protocol: For osteogenic differentiation by adhesion culturing, the human embryonic stem cells obtained in Example 1, after passage, were cultured in the culture medium of Example 1 for 2 days, and then in a culture medium, free of recombinant human FGF basic, […], 0.01˜50 μM LY294002, 0.01˜20 μM AKT inhibitor, or conventional osteogenic supplements (10 mM β-glycerophosphate, 0.1 mM Dexamethasone, 0.1 mM L-ascorbic acid) for […], with daily replacement with a fresh embryonic stem cell culture medium (FIG. 2A).
as §1
First, a description is given of the adhesion culture method. […] Afterwards, the human embryonic stem cells are induced to differentiate into osteoblasts by being cultured for five days in a medium that is the same except that it is free of recombinant human FGF basic and is supplemented with LY294002, an AKT inhibitor, rapamycin, and/or conventional osteogenic supplements (10 mM 3-glycerophosphate, 0.1 mM Dexamethasone, and 0.1 mM L-ascorbic acid) (Stage II).

[4] = tested on: PI4K, an EGR receptor, a PDGF receptor, an insulin receptor, an MAP kinase, an S6 kinase; conditions: cited from earlier work
[5] = tested on: PI3K; conditions: cited from earlier work
[6] = tested on: human embryonic stem cell-derived embryoid bodies; assay: Analysis for mineralization by Alizarin-Red S staining; type: cell-based
Protocol: The cells obtained using the three differentiation inducing techniques described in Example 3 were analyzed for mineralization using an Alizarin-Red S staining method. After aspirating the culture medium, the cells on the culture dish were washed with PBS and fixed at 4° C. for 1 hr with 70% ethanol. Thereafter, the cells were stained with a 40 mM alizarin red (AR) solution (pH 4.2) for 10 min, washed with distilled water, and observed for mineral nodule formation under an optical microscope before they were completely dried. […] A culture period of three weeks was required to maximize the number of Alizarin Red-positive cells upon osteogenic differentiation with rapamycin alone.

[7] = tested on: human embryonic stem cell-derived embryoid bodies; assay: Immunofluorescent staining for BSP and osteocalcin; type: cell-based
Protocol: The osteogenic differentiation of the cells obtained using the three differentiation inducing techniques described in Example was identified by immunofluorescent staining. First, the cells were placed on a 1 cm^2 cover glass and the medium was aspirated. Following washing with PBS, the cells were incubated with a fixing solution (citrate-acetone-formaldehyde) for about 30 sec at room temperature and washed with distilled water for 45 sec. Next, treatment with 3% bovine serum albumin/phosphate buffered saline (BSA/PBS) for 30 min was followed by incubation with a primary antibody for 12 hrs. Then, the cells were washed three times for 15 min in 0.1% Triton X-100/PBS before labeling by incubation with an Alexa488-conjugated secondary antibody (Molecular probes, USA) for 30 min at room temperature. The cells were washed again three times in 0.1% Triton X-100/PBS for 15 min each time for observation under a fluorescent microscope (Olympus, Japan). In order to identify osteogenic differentiation, anti-bone sialoprotein (anti-BSP, Chemicon; 1:100), and anti-osteocalcin (R&D Systems; 1:500) were used for immunofluorescence.

[8] = tested on: human embryonic stem cell-derived embryoid bodies; assay: Quantitative real-time PCR of osteoblast-specific genes (FIGS. 7, 8, 11); type: cell-based
Protocol: After being collected as a suspension, the cell clumps were transferred into bacterial cell culture dishes and incubated for 5 days in a suspension culture manner. Afterwards, the embryoid bodies thus obtained were transferred to Matrigel (BD biosciences, USA)-coated culture dishes, free of human recombinant FGF basic, containing 0.1˜200 nM rapamycin, 0.01˜50 μM LY294002, 0.01˜20 μM AKT inhibitor, or osteogenic supplements (10 mM β-glycerophosphate, 0.1 mM Dexamethasone, and 0.1 mM L-ascorbic acid) for three weeks in an adhesion culture manner to achieve osteogenic differentiation (FIG. 3A).
as §1, §2

[9] = osteoblasts differentiated from embryoid bodies, FIG. 6
[10] = embryoid bodies, one week of differentiation, FIG. 7
[11] = two weeks of differentiation culture, FIG. 7

CCCCCCCCCCCCCCCCCCOC[C@H](COC(=O)OC1C(O)C(O)C(O)C(CO)C1O)OC (stereo partly drawn) [AKT inhibitor]
cytotoxicity [1]: without the occurrence of cytotoxicity
expression level of osteoblastic markers [2]: increase in expression level
expression level of osteoblast-specific genes compared to untreated control [2]: increase in the expression level
expression levels of osteoblast-specific genes ([2]; FIG. 6): increase the expression levels
expression of osterix and osteoprotegerin [2, 9]: expressed at high levels
expression of osteoblast-specific genes [3]: efficiently expressed
expression level of osteoblastic markers [3]: increase in expression level

O=c1cc(N2CCOCC2)oc2c(-c3ccccc3)cccc12 [LY294002]
inhibition of PI4K, an EGR receptor, a PDGF receptor, an insulin receptor, an MAP kinase, an S6 kinase [4]: does not inhibit
cytotoxicity [1]: without the occurrence of cytotoxicity
inhibition of PI3K [5]: inhibits PI3K
expression level of osteoblastic markers [2]: increase in expression level
expression level of osteoblast-specific genes compared to untreated control [2]: increase in the expression level
expression levels of osteoblast-specific genes ([2]; FIG. 6): increase the expression levels
expression of osterix and osteoprotegerin [2, 9]: expressed at high levels
expression of osteoblast-specific genes [3]: efficiently expressed
expression level of osteoblastic markers [3]: increase in expression level

CO[C@H]1C[C@@H]2CC[C@@H](C)[C@@](O)(O2)C(=O)C(=O)N2CCCC[C@H]2C(=O)O[C@H]([C@H](C)C[C@@H]2CC[C@@H](O)[C@H](OC)C2)CC(=O)[C@H](C)/C=C(\C)[C@@H](O)[C@@H](OC)C(=O)[C@H](C)C[C@H](C)/C=C/C=C/C=C/1C [rapamycin]
Alizarin-Red staining of differentiated cells ([6]; cells induced to differentiate, FIG. 10): positively stained
incubation needed to obtain a mature osteoblast phenotype ([6]; embryoid bodies incubated with rapamycin): additional three weeks
differentiation into mature osteoblasts ([6]; embryoid bodies, 20 nM rapamycin for three weeks): most efficient differentiation
Alizarin Red S staining ([6]; embryoid bodies, three weeks, 20 nM rapamycin, FIG. 10): positively stained
culture period required to maximize the number of Alizarin Red-positive cells ([6]; osteogenic differentiation with rapamycin alone): three weeks
cytotoxic effects ([1]; 20 nM of rapamycin added to a culture medium): no cytotoxic effects
cytotoxicity [1]: without the occurrence of cytotoxicity
expression level of osteoblastic markers [2]: increase in expression level
expression level of osteoblast-specific genes compared to untreated control [2]: increase in the expression level
expression levels of osteoblast-specific genes ([2]; FIG. 6): increase the expression levels
osteogenic induction activity among the three compounds ([2]; even at low doses, FIG. 6): most potent induction activity
induction of embryoid bodies to differentiate into osteoblasts relative to LY294002 and AKT inhibitor ([2]; osteoblastic markers, FIG. 6): more effectively induce
amounts of marker genes expressed relative to LY294002 or an AKT inhibitor [2, 9]: as great as or greater than
diversity of expressed marker genes (BMP2, osteocalcin, Cbfa-2, osterix, osteoprotegerin, GATA2, CMP) [2, 9]: highest diversity
expression of osterix and osteoprotegerin [2, 9]: expressed at high levels
ability to induce osteogenic differentiation relative to conventional osteogenic supplements ([7]; FIG. 9): as good as or better than
number of cells differentiated into osteoblasts (BSP or osteocalcin antibody) relative to conventional osteogenic supplements ([7]; FIG. 9): same or greater number
immunofluorescent staining with antibodies to BSP and osteocalcin ([7]; embryoid bodies, three weeks, 20 nM rapamycin): positively stained
expression of osteoblast-specific genes, dose comparison ([3]; 20 nM versus 10 nM of rapamycin): greater levels in the presence of 20 nM than 10 nM
expression levels of Osteocalcin and Osteonectin, dose comparison ([3]; 20 nM versus 10 nM rapamycin, FIG. 5): higher at a dose of 20 nM than 10 nM
expression of osteoblast-specific genes [3]: efficiently expressed
expression level of osteoblastic markers [3]: increase in expression level
expression of osterix, BMP2, and osteonectin genes ([3]; two cell lines, adhesion culture, FIG. 5): expressed in both cell lines, but in different patterns
expression of osteoblastic markers Cbfa-1, osteocalcin, and osteoprotegerin ([3]; two independently established cell lines, adhesion culture, compared to an undifferentiated control, FIG. 5): expressed; also recorded: distinctively higher levels
osteogenic differentiation activity relative to conventional osteogenic supplements (cell morphology, expression level of osteoblastic markers) ([8]; FIGS. 2, 7 and 8): as good as or better than
expression level of osterix, BMP2, BMP4, α1 type I collagen, osteocalcin, osteoprotegerin, osteonectin, and osteopontin ([8]; after three weeks of differentiation culture, FIG. 8): continued to increase in expression level
expression level of Cbfa1 ([8]; both human embryonic stem cell lines, after three weeks of differentiation culture): decreased in the expression level
expression levels of osterix, BMP4, α1 type I collagen, osteoprotegerin, and osteopontin ([8]; both human embryonic stem cell lines, three weeks of differentiation culture): similarly increased
expression of BMP2 increased [8, 10]: 1.38 fold
expression of BSP increased [8, 10]: 6.54 fold
expression of Cbfa1 increased [8, 10]: 3.24 fold
expression of osteocalcin increased [8, 10]: 1.84 fold
expression of osteopontin increased [8, 10]: 2.89 fold
expression level of osteoblastic markers ([8]; embryoid bodies, one week of incubation with rapamycin, FIG. 7): increase in expression level
expression level of BMP2 increased [8, 11]: 1.34 fold
expression level of BMP4 increased [8, 11]: 1.18 fold
expression level of BSP increased [8, 11]: 1.63 fold
expression level of Cbfa-1 increased [8, 11]: 2.11 fold
expression level of osteocalcin increased [8, 11]: 1.61 fold
expression level of osteonectin increased [8, 11]: 1.94 fold
expression level of osteopontin increased [8, 11]: 5.81 fold
expression level of osteoprotegerin increased [8, 11]: 2.18 fold
expression level of osterix increased [8, 11]: 1.59 fold
expression level of α1 type I collagen increased [8, 11]: 1.35 fold
